“Also recorded” adds a separate entry of the source. Like-named read-outs stand apart in the source and are kept apart here. One block for each compound: values may come before it.
How the values were obtained:
[1] = tested on: human platelets; assay: Inhibition of U46619-induced human platelet aggregation; format: cell-based; conditions: for IC50: Homo sapiens, Platelet, 1 min
Description: Platelet rich plasma was prepared from four healthy, normal volunteers using standard techniques.
Platelets were aggregated with U46619 (0.5 to 1.0 μM) to produce an
average % aggregation at one minute of 61.3 ± 3.1. The ID50 value
were calculated based on the inhibition of U46619 induced aggregation one
minute after its addition.
Platelets were aggregated with U46619 (0.09 to 0.65 μM) to produce an
average % aggregation at one minute of 47 ± 3. The ID50 values
The potency of PTA-OH and PTA-OM for antagonism of U46619 induced human platelet aggregation was determined as described above.

[2] = tested on: endotoxic shock; assay: Protection against endotoxic shock (Salmonella endotoxin); format: in vivo, young male Long-Evans rats
From the text: Based on the protective biological response observed and the absence of change in plasma thromboxane levels, it is concluded that trans-13 APT is a thromboxane receptor antagonist.

[3] = tested on: platelet aggregation; conditions: 13-APA itself, stated as background for comparison; cited from earlier work
[4] = Solubility; format: physicochemical
[5] = tested on: platelet aggregation; assay: U46619 and arachidonic acid-induced platelet aggregation; format: cell-based, human
Description: Compound A was prepared in a manner analogous to 13 APA itself, i.e., by borohydride reduction of the Schiff base obtained from the reaction of tyramine and ethyl-2-oxo-cyclopentane-heptanoate. This reaction produces about equal amounts of the cis and trans ethyl esters, which were separated on preparative silica gel TLC and subsequently hydrolyzed to the free acids by refluxing in aqueous NaOH.

[6] = tested on: canine saphenous veins; assay: Antagonism of vascular smooth muscle contraction in canine saphenous veins; format: cell-based
[7] = Table I, U46619 0.5 to 1.0 μM, average % aggregation at one minute 61.3 ± 3.1, indomethacin 10 μM, one minute preincubation, platelet rich plasma, read-out: ID50 (the source's name)
[8] = Table 2, U46619 0.09 to 0.65 μM, average % aggregation at one minute 47 ± 3, indomethacin 10 μM, one minute preincubation, read-out: ID50 (the source's name)
[9] = 30 mg/kg i.p., vs vehicle pretreated animals
[10] = pinane analogs, determined as described above, read-out: ID50 (antagonism of U46619 induced human platelet aggregation)

Structure (SMILES): CCCCCCCN[C@H]1CCC[C@H]1CCCCCCC(=O)O (relative stereo) [13-cis-azaprostanoic acid, reference compound]
IC50 [1, 7]: 14.8 ± 2.2 µM

Structure (SMILES): O=C(O)CCCCCC[C@H]1CCC[C@H]1NCC(O)c1ccc(O)c(I)c1 (relative stereo) [13-cis-iodo APO]
IC50 [1, 8]: 9.8 ± 1.3 µM

Structure (SMILES): O=C(O)CCCCCC[C@@H]1CCC[C@H]1NCCc1ccc(O)cc1 (relative stereo) [Compound 13-trans-APT, 7-(2-p-hydroxphenethylamino-cyclopentyl)-heptanoic acid]
plasma thromboxane B2 levels ([2]; 30 mg/kg i.p., 30 minutes and four hours after endotoxin, vs vehicle): elevated to the same degree
6-keto-PGF1α levels [2, 9]: significantly lower
endotoxic shock as measured by hypoglycemia, thrombocytopenia and tissue infarct effects [2, 9]: less subject to endotoxic shock
protection against endotoxic shock ([2]; 30 mg/kg, intraperitoneal pretreatment, endotoxin intravenously): protected against endotoxic shock
protection against pathophysiologic sequelae of S. enteritidis endotoxemia ([2]; 30 mg/kg, rats): effective in protecting rats
IC50 [1, 7]: 9.9 ± 1.7 µM

Structure (SMILES): CCCCCCCN[C@H]1CCC[C@@H]1CCCCCCC(=O)O [Compound 13-APA, 13-Azaprostanoic acid]
relative potency of isomers [3]: much more potent as the trans form

Structure (SMILES): O=C(O)CCCCCCC1CCCC1NCCc1ccc(O)cc1 (stereo not drawn) [Compound A, 7-(2-p-hydroxyphenethylamino-cyclopenthyl)-heptanoic acid]
activity and relative potency of isomers in platelet aggregation [5]: the two isomers were active, with the trans more potent than the cis; also recorded: significantly more potent than the parent 13-APA

More lines, main results first:

IC50 [1, 7]: 13.6 ± 1.9 µM
Structure (SMILES): CCCCCCCN[C@@H]1CCC[C@H]1CCCCCCC(=O)O (relative stereo) [13-trans-azaprostanoic acid, reference compound]

IC50 [1, 7]: 17.6 ± 4.4 µM
Structure (SMILES): O=C(O)CCCCCC[C@@H]1CCC[C@@H]1NCCc1ccc(O)cc1 (relative stereo) [Compound 13-cis-APT, 7-(2-p-hydroxphenethylamino-cyclopentyl)-heptanoic acid]

IC50 [1, 8]: 6.4 ± 0.7 µM
IC50 [1, 7]: 16 ± 3.2 µM
Structure (SMILES): O=C(O)CCCCCC[C@@H]1CCC[C@@H]1NCC(O)c1ccc(O)cc1 (stereo partly drawn) [Compound 13-cis-APO, 7-(2-p-hydroxyphenylethanolamino-cyclopentyl)-heptanoic acid]

IC50 [1, 7]: 8.3 ± 1.4 µM
solubility in ethanol [4]: practically insoluble
Structure (SMILES): O=C(O)CCCCCC[C@@H]1CCC[C@H]1NCC(O)c1ccc(O)cc1 (stereo partly drawn) [Compound 13-trans-APO, 7-(2-p-hydroxyphenylethanolamino-cyclopentyl)-heptanoic acid]

IC50 [1, 10]: 0.52 ± 0.07 µM
Structure (SMILES): CC1(C)C2CC(NCC(O)Cc3ccc(O)cc3)C(C/C=C\CCCC(=O)O)C1C2 (stereo not drawn) [PTA-OH, 13-aza-16-(p-hydroxyphenyl) pinane TxA2]
relative potency as inhibitor of human platelet aggregation [1]: more potent than 13-aza-16-(p-methoxyphenyl) pinane TxA2 (PTA-OM)

IC50 [1, 10]: 1.56 ± 0.35 µM
Structure (SMILES): COc1ccc(CC(O)CNC2CC3CC(C2C/C=C\CCCC(=O)O)C3(C)C)cc1 (stereo not drawn) [PTA-OM, 13-aza-16-(p-methoxyphenyl) pinane TxA2]
relative potency as antagonist of vascular smooth muscle contraction [6]: more potent than PTA-OH

IC50 [1, 10]: 0.38 ± 0.05 µM
Structure (SMILES): CC1(C)C2CC(NCC(O)Cc3ccc(O)c(I)c3)C(C/C=C\CCCC(=O)O)C1C2 (stereo not drawn) [^127 I-PTA-OH]

Reference: patent US4695647A, “Aromatic derivatives of 13-azaprostanoic acid” (Drug Science Foundation, priority 1984, dated 1987)
